#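 Protocol summary: plate cells (96-well), add compound at 5 concentrations, incubate 48 h, interpolate endpoints linearly. Definition used: TGI = concentration required for complete inhibition of growth.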 Where a SMILES comes first, the peptide text is derived from it. The star is where a group is joined. Cbz = O=C(OCc1ccccc1)*
# Key:
# Assay in all cases: NCI-60 cell line screen, 48 h
# HCC-2998 colon = tested on: HCC-2998 colon
# OVCAR-8 ovarian = tested on: OVCAR-8 ovarian
# COLO 205 colon = tested on: COLO 205 colon
# SK-MEL-2 melanoma = tested on: SK-MEL-2 melanoma
# NCI-H460 lung = tested on: NCI-H460 lung
# NCI/ADR-RES ovarian = tested on: NCI/ADR-RES ovarian
# HCT-15 colon = tested on: HCT-15 colon
# UACC-62 melanoma = tested on: UACC-62 melanoma
# NCI-H226 lung = tested on: NCI-H226 lung
# OVCAR-4 ovarian = tested on: OVCAR-4 ovarian
# MOLT-4 leukemia = tested on: MOLT-4 leukemia
# SF-268 CNS = tested on: SF-268 CNS
# 786-0 renal = tested on: 786-0 renal
# BT-549 breast = tested on: BT-549 breast
Compound,TGI (HCC-2998 colon) [µM],TGI (OVCAR-8 ovarian) [µM],TGI (COLO 205 colon) [µM],TGI (SK-MEL-2 melanoma) [µM],TGI (NCI-H460 lung) [µM],TGI (NCI/ADR-RES ovarian) [µM],TGI (HCT-15 colon) [µM],TGI (UACC-62 melanoma) [µM],TGI (NCI-H226 lung) [µM],TGI (OVCAR-4 ovarian) [µM],TGI (MOLT-4 leukemia) [µM],TGI (SF-268 CNS) [µM],TGI (786-0 renal) [µM],TGI (BT-549 breast) [µM]
CC[C@](C)(O)C(=O)O[C@H]1C(=O)O[C@@H]2C[C@H]3C(C)=C[C@H](O)[C@@H](O)[C@]3(C)[C@H]3[C@@]4(O)OC[C@]32[C@@H]1[C@@H](C)[C@H]4O,71.4,136,86.1,118,31.3,> 205,221,94.2,81.2,185,27.5,207,,
N#CC(NNC(=O)c1ccccc1O)c1ccccc1 (stereo not given),,> 100,> 100,> 100,> 100,,> 100,1.93,76.6,> 100,> 100,> 100,> 100,
O=C(CC(C(=O)c1cccs1)c1ccsc1)c1ccco1 (stereo not given),> 100,> 100,95.5,,81.9,43.6,49.5,62.1,> 100,,> 100,74.2,> 100,
COc1ccc(CCc2ccccc2CC(=O)O)cc1,> 100,> 100,> 100,> 100,> 100,,> 100,> 100,> 100,> 100,> 100,> 100,> 100,
CC1CC(C)(O)CC(C(O)CC2CC(=O)NC(=O)C2)C1=O (stereo not given),1.59,2.89,1.01,2.68,1.76,5.87,2.94,0.62,0.764,0.87,0.229,> 69.3,0.741,
CCOC(=O)C(CC(=O)OC)NC(=O)C(CC(=O)OC)NC(=O)C(CC(=O)OC)NC(=O)C(CC(=O)OC)NC(=O)OCc1ccccc1 (stereo not given) (Cbz-D(OMe)D(OMe)D(OMe)D(OMe)-OEt; configuration not given here),> 100,> 100,> 100,> 100,> 100,,> 100,> 100,> 100,,> 100,,> 100,> 100
CC(C)c1nc2c(Cl)c3ncccc3cc2[nH]c1=O,,> 100,> 100,> 100,> 100,> 100,> 100,> 100,> 100,> 100,> 100,> 100,> 100,> 100
CC(=O)c1cccc(NC(=O)C(=O)C(C(=O)c2ccccc2F)C2OC(=O)c3ccccc32)c1 (stereo not given),53.9,> 100,41.9,96.1,> 100,,> 100,> 100,67.3,> 100,> 100,> 100,,
O=C(Cc1ccccc1)NNc1nc(NNC(=O)c2ccncc2)nc(Nc2ccc(Cl)cc2)n1,> 10,> 10,> 10,,,> 10,> 10,> 10,,> 10,> 10,> 10,> 10,> 10

# — PubChem BioAssay (NCI)
